Earlier results in patent US11169101B2, “Oligosaccharide compositions and methods of use thereof” (Kaleido Biosciences, Inc., priority 2018, dated 2021).

Settings: administered in combination with lactulose

CO[C@H]1/C=C/O[C@@]2(C)Oc3c(C)c(O)c4c(O)c(c5c(nc6cc(C)ccn65)c4c3C2=O)NC(=O)/C(C)=C\C=C\[C@H](C)[C@H](O)[C@@H](C)[C@@H](O)[C@@H](C)[C@H](OC(C)=O)[C@@H]1C [rifaximin]
reduction of episodes of OHE: approximately 50%
